Reference: patent publication US4159328A, “Tetrahydro-1,3,5-thiadiazin-4-one derivative” (Nihon Nohyaku Co., Ltd., priority 1977, dated 1979)
Where two headings read alike, the source gives them in different places.

Assays:
Assay type in all cases: in vivo
[1] = tested on: larvae of brown planthopper (Nilaparvata lugens Stahl); assay: Test Example 1: insecticidal activity against larvae of brown planthopper; conditions: 120 h, third-instar larvae, 25° C., 5 days after treatment
Experimental: Insecticidal activity against larvae of brown planthopper (Nilaparvata lugens Stahl).
(§1) Testing method: Five rice seedlings of the 1.5 leaf age were dipped in a test composition of 400 ppm concentration for 30 seconds. After air-drying, the seedlings were placed in a glass tube containing 1 ml of water and infested with five third-instar larvae of brown planthopper. The glass tube was left standing in a constant temperature cabinet at 25° C. and 5 or 7 days after the treatment, dead-and-survival was observed. Mortality was calculated from the results of 3-replication test.

[2] = tested on: two-spotted spider mite (Tetranychus urticae Koch); assay: Test Example 3: activity to two-spotted spider mite; conditions: 120 h, 1,000 ppm, 5 days after treatment
Text: Activity to two-spotted spider mite (Tetranychus urticae Koch).
Testing method: Two-spotted spider mites were set free on the pot-planted soybean in a greenhouse. On the next day, a test composition of 1,000 ppm concentration was sprayed over the soybean by means of a spray gun. Two days or five days after the treatment, dead-and-survival was inspected to calculate the mortality.

[3] = tested on: larvae of 28-spotted lady beetle (Epilachna vigintioctopunctana Fabricius); assay: Test Example 8: insecticidal activity against larvae of 28-spotted lady beetle; conditions: 120 h
Experimental: Insecticidal activity against larvae of 28-spotted lady beetle (Epilachna vigintioctopunctana Fabricius).
Testing method: Leaflets of tomato grown in a greenhouse were dipped in a test composition of 100 ppm concentration for 30 seconds and after that the leaflets were dried by air. In a Petri dish covered on the bottom with a piece of filter paper, were introduced 1 ml of water and three treated tomato leaflets. After having been infested with seven second-instar larvae of 28-spotted lady beetle, the Petri dish was left standing in a constant temperature cabinet at 25° C. Five days after the treatment, the dead-and-survival was inspected to calculate the mortality (2-replication test).

[4] = tested on: larvae of white-backed planthopper (Sogatella furcifera Horvath); assay: Test Example 2: insecticidal activity against larvae of white-backed planthopper; conditions: 168 h, 400 ppm, first-instar larvae, 25° C., seven days after treatment, read-out: Mortality
Experimental: Insecticidal activity against larvae of white-backed planthopper (Sogatella furcifera Horvath).
as §1, with “first-instar” for “third-instar”, “white-backed” for “brown”, “seven” for “5 or 7”

[5] = tested on: larvae of house mosquito (Culex pipiens pallens Coquillett); assay: Test Example 6: insecticidal activity to larvae of house mosquito; conditions: 120 h
Experimental: Insecticidal activity to larvae of house mosquito (Culex pipiens pallens Coquillett).
Test method: In a 200-ml beaker, was placed together with a feed 100 ml of a test composition diluted with deionized water to 10 ppm concentration. The test composition was infested with 20 first-instar larvae of house mosquito and the beaker was covered with a sheet of Japanese paper. The beaker was kept in a constant temperature cabinet at 25° C. Five days after the treatment, the dead-and-survival was inspected to calculate the mortality.

[6] = tested on: larvae of green rice leafhopper (Nephotettix cincticeps Uhler); assay: Test Example 5: activity against larvae of green rice leafhopper; conditions: 168 h, 400 ppm, second-instar larvae, 25° C., seven days after treatment, read-out: Mortality
Experimental: Activity against larvae of green rice leafhopper (Nephotettix cincticeps Uhler).
Testing method: Five rice seedlings of the 1.5 leaf age were dipped in a test composition of 400 ppm concentration for 30 seconds. After air-drying, the seedlings were placed in a glass tube containing 1 ml of water and infested with five second-instar larvae of green rice leafhopper. The glass tube was left standing in a constant temperature cabinet at 25° C. Seven days after the treatment, dead-and-survivalwas inspected to calculate the mortality (3-replication test).

[7] = 100 ppm, second-instar larvae, 25° C., five days, read-out: Mortality

CC(C)N=C1SCN(c2ccc(Cl)cc2Cl)C(=O)N1C(C)C [Compound 398]
mortality at 400 ppm [1]: 100%
mortality at 1000 ppm [2]: 80%
mortality at 100 ppm [3]: 80%

CCC(C)N=C1SCN(c2ccccc2)C(=O)N1c1ccccc1 (stereo not shown) [Compound 163, 2-s-Butylimino-3,5-diphenyl-tetrahydro-1,3,5-thiadiazin-4-one]
mortality at 100 ppm [3, 7]: 60%

CCCN1C(=O)N(c2cc(Cl)cc(Cl)c2)CSC1=NC(C)C [Compound 405]
mortality at 100 ppm [3]: 90%

CC(C)N=C1SCN(c2ccc(F)cc2)C(=O)N1C(C)C [Compound 285]
mortality at 400 ppm [1]: 100%
mortality at 1000 ppm [2]: 100%
mortality at 400 ppm [4]: 100%
mortality at 10 ppm [5]: 100%
mortality at 100 ppm [3]: 80%
mortality at 400 ppm [6]: 100%

CCC(C)N1C(=O)N(c2ccc(F)cc2)CSC1=NC(C)(C)C (stereo not shown) [Compound 284]
mortality at 400 ppm [1]: 100%
mortality at 1000 ppm [2]: 100%
mortality at 400 ppm [4]: 100%
mortality at 10 ppm [5]: 100%
mortality at 100 ppm [3]: 100%
mortality at 400 ppm [6]: 100%

CCCCN1C(=O)N(c2ccccc2)CSC1=NC(C)C [Compound 147]
mortality at 400 ppm [1]: 100%
mortality at 10 ppm [5]: 100%
mortality at 100 ppm [3]: 100%

CCC(C)N1C(=O)N(c2cccc(C)c2)CSC1=NC(C)(C)C (stereo not shown) [Compound 328]
mortality at 400 ppm [1]: 90%
mortality at 1000 ppm [2]: 100%
mortality at 400 ppm [4]: 100%
mortality at 10 ppm [5]: 100%
mortality at 100 ppm [3]: 100%
mortality at 400 ppm [6]: 100%

CC(C)N1C(=O)N(c2ccccc2Cl)CSC1=NC(C)(C)C [Compound 245, 2-t-butylimino-3-isopropyl-5-(o-chlorophenyl)-tetrahydro-1,3,5-thiadiazin-4-one]
mortality at 400 ppm [1]: 100%
mortality at 1000 ppm [2]: 100%
mortality at 400 ppm [4]: 100%
mortality at 10 ppm [5]: 100%
mortality at 100 ppm [3]: 90%
mortality at 400 ppm [6]: 100%

CC(C)N=C1SCN(c2cccc(Cl)c2)C(=O)N1C(C)C [Compound 220]
mortality at 400 ppm [1]: 100%
mortality at 400 ppm [4]: 100%
mortality at 10 ppm [5]: 80%
mortality at 100 ppm [3]: 100%
mortality at 400 ppm [6]: 100%

CC(C)N1C(=O)N(c2ccc([N+](=O)[O-])cc2)CSC1=NC(C)(C)C [Compound 364]
mortality at 400 ppm [1]: 100%
mortality at 1000 ppm [2]: 60%
mortality at 100 ppm [3]: 80%

Cc1cccc(N2CSC(=NC(C)C)N(C(C)C)C2=O)c1 [Compound 325]
mortality at 400 ppm [1]: 100%
mortality at 400 ppm [4]: 100%
mortality at 10 ppm [5]: 100%
mortality at 100 ppm [3]: 100%
mortality at 400 ppm [6]: 100%

CCC(C)N1C(=O)N(c2ccccc2C)CSC1=NC(C)(C)C (stereo not shown) [Compound 303]
mortality at 400 ppm [1]: 100%
mortality at 1000 ppm [2]: 80%
mortality at 400 ppm [4]: 100%
mortality at 100 ppm [3]: 100%
mortality at 400 ppm [6]: 100%

C=CCN1C(=O)N(c2cc(Cl)cc(Cl)c2)CSC1=NC(C)C [Compound 412, 2-Isopropylimino-3-allyl-5-(3,5-dichlorophenyl)-tetrahydro-1,3,5-thiadiazin-4-one]
mortality at 400 ppm [1]: 100%
mortality at 1000 ppm [2]: 100%
mortality at 100 ppm [3]: 100%

Cc1ccccc1N1CSC(=NC(C)(C)C)N(C(C)C)C1=O [Compound 302]
mortality at 400 ppm [1]: 100%
mortality at 1000 ppm [2]: 70%
mortality at 400 ppm [4]: 100%
mortality at 10 ppm [5]: 100%
mortality at 100 ppm [3]: 80%
mortality at 400 ppm [6]: 100%

CC(C)N1C(=O)N(c2ccc(Cl)cc2Cl)CSC1=NC(C)(C)C [Compound 399]
mortality at 400 ppm [1]: 100%
mortality at 1000 ppm [2]: 80%
mortality at 100 ppm [3]: 100%

CCC(C)N1C(=O)N(c2ccc(OC)cc2)CSC1=NC(C)(C)C (stereo not shown) [Compound 355, 2-t-butylimino-3-s-butyl-5-(p-methoxyphenyl)-tetrahydro-1,3,5-thiadiazin-4-one]
mortality at 400 ppm [1]: 100%
mortality at 1000 ppm [2]: 100%
mortality at 400 ppm [4]: 100%
mortality at 10 ppm [5]: 90%
mortality at 100 ppm [3]: 100%
mortality at 400 ppm [6]: 100%

CC(C)N=C1SCN(c2ccc(Cl)c(Cl)c2)C(=O)N1Cc1ccccc1 [Compound 422]
mortality at 400 ppm [1]: 60%
mortality at 1000 ppm [2]: 100%
mortality at 100 ppm [3]: 90%

CCCCN=C1SCN(c2ccccc2)C(=O)N1CCCC [Compound 146]
mortality at 10 ppm [5]: 100%
mortality at 100 ppm [3]: 100%

CCCN1C(=O)N(c2ccc(C)cc2)CSC1=NC(C)C [Compound 314]
mortality at 400 ppm [1]: 100%
mortality at 1000 ppm [2]: 100%
mortality at 10 ppm [5]: 100%
mortality at 100 ppm [3]: 100%

COc1ccc(N2CSC(=NC(C)(C)C)N(C(C)C)C2=O)cc1 [Compound 353, 2-t-Butylimino-3-isopropyl-5-(p-methoxyphenyl)tetrahydro-1,3,5-thiadiazin-4-one]
mortality at 400 ppm [1]: 100%
mortality at 1000 ppm [2]: 100%
mortality at 400 ppm [4]: 100%
mortality at 10 ppm [5]: 100%
mortality at 100 ppm [3]: 100%
mortality at 400 ppm [6]: 100%

CCN=C1SCN(c2cc(Cl)cc(Cl)c2)C(=O)N1CC [Compound 404]
mortality at 1000 ppm [2]: 100%
mortality at 100 ppm [3]: 90%

COc1ccc(N2CSC(=NC(C)C)N(C(C)C)C2=O)cc1 [Compound 352]
mortality at 400 ppm [1]: 100%
mortality at 400 ppm [4]: 100%
mortality at 10 ppm [5]: 100%
mortality at 100 ppm [3]: 100%
mortality at 400 ppm [6]: 100%

CCN1C(=O)N(c2ccc(Cl)c(Cl)c2)CSC1=NC(C)(C)C [Compound 418]
mortality at 400 ppm [1]: 60%
mortality at 1000 ppm [2]: 70%
mortality at 100 ppm [3, 7]: 70%

CN=C1SCN(c2ccc(Br)cc2)C(=O)N1C [Compound 291]
mortality at 400 ppm [1]: 100%
mortality at 1000 ppm [2]: 100%
mortality at 400 ppm [4]: 100%
mortality at 10 ppm [5]: 70%
mortality at 100 ppm [3]: 100%
mortality at 400 ppm [6]: 100%

CC(C)N1C(=O)N(c2cccc(Cl)c2)CSC1=NC(C)(C)C [Compound 221, 2-t-Butylimino-3-isopropyl-5-(m-chlorophenyl)-tetrahydro-1,3,5-thiadiazin-4-one]
mortality at 400 ppm [1]: 100%
mortality at 1000 ppm [2]: 100%
mortality at 400 ppm [4]: 100%
mortality at 10 ppm [5]: 100%
mortality at 100 ppm [3]: 90%
mortality at 400 ppm [6]: 100%

CCC(C)N=C1SCN(c2ccc(F)cc2)C(=O)N1C(C)CC (stereo not shown) [Compound 283]
mortality at 400 ppm [1]: 100%
mortality at 1000 ppm [2]: 70%
mortality at 400 ppm [4]: 100%
mortality at 10 ppm [5]: 70%
mortality at 100 ppm [3]: 90%
mortality at 400 ppm [6]: 90%

CC(C)N=C1SCN(c2ccccc2Cl)C(=O)N1C(C)C [Compound 244, 2-Isopropylimino-3-isopropyl-5-(o-chlorophenyl)-tetrahydro-1,3,5-thiadiazin-4-one]
mortality at 400 ppm [1]: 100%
mortality at 1000 ppm [2]: 70%
mortality at 400 ppm [4]: 100%
mortality at 10 ppm [5]: 100%
mortality at 400 ppm [6]: 100%

CCC(C)N=C1SCN(c2cc(Cl)cc(Cl)c2)C(=O)N1C(C)CC (stereo not shown) [Compound 411]
mortality at 400 ppm [1]: 60%
mortality at 1000 ppm [2]: 100%
mortality at 100 ppm [3]: 100%

CC(C)N1C(=O)N(c2ccc(F)cc2)CSC1=NC(C)(C)C [Compound 282, 2-t-butylimino-3-isopropyl 5-(p-fluorophenyl)-tetrahydro-1,3,5-thiadiazin-4-one]
mortality at 400 ppm [1]: 100%
mortality at 1000 ppm [2]: 80%
mortality at 400 ppm [4]: 100%
mortality at 10 ppm [5]: 90%
mortality at 400 ppm [6]: 100%

CCC(C)N1C(=O)N(c2ccc(Cl)cc2)CSC1=NC(C)(C)C (stereo not shown) [Compound 198]
mortality at 400 ppm [1]: 100%
mortality at 1000 ppm [2]: 100%
mortality at 400 ppm [4]: 100%
mortality at 10 ppm [5]: 100%
mortality at 100 ppm [3]: 100%
mortality at 400 ppm [6]: 100%
